Measured values as given in the NIST ThermoML archive (doi:10.1016/j.jct.2013.01.006).

Settings: Liquid, Vibrating tube method

C=C(F)C(F)(F)F [2,3,3,3-tetrafluoro-1-propene]
Settings	mass density [kg/m3]
283.5 K, 3000 kPa	1155.63
283.5 K, 5000 kPa	1165.27
283.51 K, 1000 kPa	1145.11
283.51 K, 10000 kPa	1186.43
283.51 K, 15000 kPa	1204.63
283.52 K, 20000 kPa	1220.62
283.52 K, 25000 kPa	1235
283.53 K, 30000 kPa	1248.1
283.53 K, 40000 kPa	1271.31
283.53 K, 50000 kPa	1291.52
283.53 K, 60000 kPa	1309.52
283.53 K, 69990 kPa	1325.92
283.54 K, 79990 kPa	1340.69
283.54 K, 89990 kPa	1354.31
283.54 K, 99990 kPa	1367.01
293.42 K, 100000 kPa	1352.4
293.43 K, 1000 kPa	1111.44
293.43 K, 3000 kPa	1123.79
293.43 K, 5000 kPa	1134.97
293.43 K, 80000 kPa	1324.88
293.43 K, 89990 kPa	1339.25
293.44 K, 10000 kPa	1159.05
293.44 K, 15000 kPa	1179.37
293.44 K, 20000 kPa	1196.95
293.44 K, 70000 kPa	1309.56
293.45 K, 25000 kPa	1212.64
293.45 K, 30000 kPa	1226.8
293.45 K, 40000 kPa	1251.77
293.45 K, 50000 kPa	1273.28
293.45 K, 60000 kPa	1292.28
303.3 K, 1000 kPa	1077.2
303.3 K, 3000 kPa	1092.22
303.3 K, 5000 kPa	1105.38
303.3 K, 10000 kPa	1133.08
303.3 K, 20000 kPa	1175.21
303.3 K, 25000 kPa	1192.3
303.3 K, 30000 kPa	1207.61
303.3 K, 40000 kPa	1234.24
303.3 K, 50000 kPa	1257.07
303.3 K, 60000 kPa	1277.12
303.31 K, 15000 kPa	1155.81
303.31 K, 69990 kPa	1295.36
303.31 K, 80000 kPa	1311.51
303.31 K, 90000 kPa	1326.38
303.31 K, 99990 kPa	1340.07
313.3 K, 3000 kPa	1054.12
313.3 K, 5000 kPa	1070.05
313.3 K, 10000 kPa	1102.25
313.3 K, 15000 kPa	1127.81
313.31 K, 20000 kPa	1149.23
313.31 K, 25000 kPa	1167.84
313.31 K, 30000 kPa	1184.38
313.31 K, 79990 kPa	1294.04
313.31 K, 100000 kPa	1323.74
313.32 K, 40000 kPa	1212.87
313.32 K, 50000 kPa	1237.08
313.32 K, 60000 kPa	1258.24
313.32 K, 70000 kPa	1277.17
313.32 K, 90000 kPa	1309.49
323.16 K, 30000 kPa	1163.21
323.16 K, 80000 kPa	1279.1
323.16 K, 90000 kPa	1295.16
323.16 K, 100000 kPa	1309.92
323.17 K, 3000 kPa	1014.55
323.17 K, 5000 kPa	1034.38
323.17 K, 10000 kPa	1072.33
323.17 K, 15000 kPa	1101.29
323.17 K, 20000 kPa	1125.01
323.17 K, 25000 kPa	1145.33
323.17 K, 40000 kPa	1193.69
323.17 K, 50000 kPa	1219.3
323.17 K, 60000 kPa	1241.51
323.17 K, 69990 kPa	1261.48
333.08 K, 3000 kPa	970.09
333.08 K, 5000 kPa	995.64
333.08 K, 10000 kPa	1041.18
333.08 K, 15000 kPa	1074.07
333.08 K, 20000 kPa	1100.37
333.08 K, 25000 kPa	1122.55
333.08 K, 30000 kPa	1141.81
333.08 K, 40000 kPa	1174.38
333.08 K, 50000 kPa	1201.52
333.08 K, 60000 kPa	1224.88
333.08 K, 70000 kPa	1245.82
333.08 K, 80000 kPa	1264.16
333.08 K, 90000 kPa	1280.84
333.08 K, 99990 kPa	1296.14
343.03 K, 25000 kPa	1099.43
343.04 K, 30000 kPa	1120.26
343.04 K, 40000 kPa	1155.06
343.05 K, 50000 kPa	1183.7
343.05 K, 60000 kPa	1208.19
343.05 K, 70000 kPa	1230.04
343.05 K, 80000 kPa	1249.14
343.05 K, 90000 kPa	1266.4
343.06 K, 15000 kPa	1045.88
343.06 K, 20000 kPa	1075.15
343.06 K, 100000 kPa	1282.22
343.07 K, 3000 kPa	917.18
343.07 K, 5000 kPa	952.33
343.07 K, 10000 kPa	1008.02
353.02 K, 3000 kPa	849.05
353.02 K, 99990 kPa	1268.7
353.03 K, 5000 kPa	902.77
353.03 K, 10000 kPa	973.22
353.03 K, 15000 kPa	1016.73
353.03 K, 20000 kPa	1049.45
353.03 K, 25000 kPa	1075.98
353.03 K, 30000 kPa	1098.53
353.03 K, 40000 kPa	1135.71
353.03 K, 50000 kPa	1166.05
353.03 K, 60000 kPa	1191.81
353.03 K, 69990 kPa	1214.55
353.03 K, 79990 kPa	1234.41
353.03 K, 89990 kPa	1252.33
362.96 K, 5000 kPa	843.74
362.96 K, 10000 kPa	936.17
362.96 K, 15000 kPa	986.89
362.96 K, 20000 kPa	1023.49
362.96 K, 25000 kPa	1052.55
362.96 K, 30000 kPa	1076.97
362.96 K, 40000 kPa	1116.69
362.96 K, 50000 kPa	1148.71
362.96 K, 60000 kPa	1175.67
362.96 K, 70000 kPa	1199.47
362.96 K, 80000 kPa	1220.08
362.96 K, 89990 kPa	1238.55
362.96 K, 100000 kPa	1255.48
